This passage reports EC50 results from patent US12606585B2, “Fluorinated hexoses” (Stichting Radboud Universiteit, priority 2020, dated 2026).

What all share (assay type): cell-based
The test system of one assay is THP-1 cells. Put plainly: Lectin staining for fucose expression inhibition, THP-1 cells. Conditions: Homo sapiens, 72 h, 3 days, 0-512 μM compound, flow cytometry. The method, then: (§1) THP-1 cells (TIB-202, ATCC) and Jurkat cells (TIB-152, ATCC) were cultured in RPMI-1640 medium containing 2 mM Glutamine and 25 mM HEPES (Gibco™, Life Technologies), supplemented with 10% v/v heat-inactivated fetal bovine serum (FBS) (Gibco™, Life Technologies) and 1× antibiotic-antimycotic solution (100 units/mL of penicillin, 100 μg/mL of streptomycin, and 0.25 μg/mL Fungizone) (Gibco™, Life Technologies) and passaged every 3-4 day by seeding a fraction of 0.5-2 min cells of the culture per 10 ml medium. EL-4 cells (TIB-39, ATCC) were cultured in DMEM medium (Gibco™, Life Technologies), supplemented with 10% v/v heat-inactivated fetal bovine serum (FBS) (Gibco™, Life Technologies), 1× antibiotic-antimycotic solution (100 units/mL of penicillin, 100 μg/mL of streptomycin, and 0.25 μg/mL Fungizone) (Gibco™, Life Technologies) and 2 mM Glutamine (Gibco™, Life Technologies) and passaged every 2-4 days by seeding a fraction of 0.5-1 min cells of the culture per 10 ml medium. For passaging a T75 flask (Corning), medium was removed and the monolayer was washed with 10 ml PBS pH 7.2 without CaCl2) and MgCl2 (Gibco™, Life Technologies) before adding 3.5 ml 0.05% trypsin/EDTA solution (Gibco™ 5 Life Technologies) in PBS. Cells were incubated at rt for 30-45 s after which the trypsin/EDTA-solution was removed. Cells were incubated for an additional 2 min at 37° C., 5.0% CO2 and resuspended in cell culture medium. Cells were then seeded at ˜40.000 cells/cm^2 in new culture flasks. All cells were cultured at 37° C., 5% CO2 in a humidified incubator.
(§2) Protocol below was repeated until n>=3 for each compounds using cells at different passage numbers. Cells were cultured in medium containing different concentrations of unnatural sugar derivatives on either 24-wells plates (adherent cell lines; 80,000 cells per well) (Corning) or 96-wells plates (suspension cell lines; 13,000-20,000 cells per well) (Thermo Scientific). DMSO, at same dilution as the unnatural sugar derivative stock solutions, was used as a positive control for lectin staining; P-Fuc2F was used for all concentrations as negative control. Cells were incubated for three days at 37° C. and 5% CO2 in a humidified incubator. Cells were harvested and washed with 100 μl 1×CF-blocking buffer (Vector Laboratories Inc.) containing 1 mM CaCl2) and 1 mM MgCl2. The cells were then resuspended in 50 μl 0.5 μg/ml of 0.5 ng/ml biotinylated lectin in 1× carbo-free blocking buffer and incubated at 4-8° C. for 45-60 min. Cells were washed with 3×100 μl PBA (PBS containing 1% v/v FBS and 0.1% w/w sodium azide), incubated with 40 μl 1 μg/ml Streptavidin-phycoerythrin conjugate (Invitrogen, eBioscience) in PBA for 10-15 min at 4-8° C. Cells were then washed again with 3×100 μl PBA, resuspended in PBA and fluorescence was measured with a flow cytometer (Beckman & Dickinson FACS-Calibur). Each replicate for each condition with >10,000 gated events. Data was processed using FlowJo (FlowJo LLC). Percentage of lectin binding was obtained by normalizing the MFI values to the MFI values of the respective DMSO control.
(§3) Three cell lines (THP-1, Jurkat, EL4) were cultured for 3 days with 0-512 μM compound. The cells were stained with two fucose specific lectins (AAL & AOL) and analysed by flow cytometry, presented as mean percentage lectin binding normalized to control (n=3).

A further assay relates to Jurkat cells. Put plainly: Lectin staining for fucose expression inhibition, Jurkat cells. The note with it: Homo sapiens, 72 h, 3 days, 0-512 μM compound, flow cytometry. On the procedure: as §1, §2, §3
In a further assay the test system is EL4 cells. The assay can be described thus: Lectin staining for fucose expression inhibition, EL4 cells. The note with it: Mus musculus, 72 h, 3 days, 0-512 μM compound, flow cytometry. On the procedure: as §1, §2, §3
Setting [1] is: AAL lectin, n=3, read-out: EC50 for fucose expression inhibition, THP-1 AAL.
Setting [2] is: AOL lectin, n=3, read-out: EC50 for fucose expression inhibition, THP-1 AOL.
The mark [3] stands for this setting: AAL lectin, n=3, read-out: EC50 for fucose expression inhibition, Jurkat AAL.
[4] abbreviates: AOL lectin, n=3, read-out: EC50 for fucose expression inhibition, Jurkat AOL.
The mark [5] stands for this setting: AAL lectin, n=3, read-out: EC50 for fucose expression inhibition, EL4 AAL.
Setting [6] is: AOL lectin, n=3, read-out: EC50 for fucose expression inhibition, EL4 AOL.

Molecules are shown by their SMILES. Like-named read-outs stand apart in the source and are kept apart here.

In the case of `CC(=O)OC1C(OC(C)=O)[C@H](OC(C)=O)C(C(F)(F)F)O[C@@H]1OP(=O)(OCCSC(C)=O)OCCSC(C)=O` (stereo partly drawn) [P-D-Rha6F3-1P (10), Di-(S-acetyl-2-thioethyl)-(2,3,4-tri-O-acetyl-6,6,6-trifluoro-α-D-mannopyranoside) phosphate], the EC50 is 0.608 µM in the assay with THP-1 cells (setting [1]); 0.454 µM in the assay with THP-1 cells (setting [2]); 27.7 µM in the assay on Jurkat cells (setting [3]); 12.8 µM with Jurkat cells (setting [4]); above 500 µM in the assay with EL4 cells (setting [5]); above 500 µM in the assay on EL4 cells (setting [6]).
As to `CC(=O)OC1C(OC(C)=O)[C@H](OC(C)=O)C(C(F)F)O[C@@H]1OP(=O)(OCCSC(C)=O)OCCSC(C)=O` (stereo partly drawn) [P-D-Rha6F2-1P (9), Di-(S-acetyl-2-thioethyl)-(2,3,4-tri-O-acetyl-6,6-difluoro-α-D-rhamnopyranoside) phosphate], the EC50 came to 1.97 µM in the assay on THP-1 cells (setting [1]); 5.26 µM with THP-1 cells (setting [2]); 5.93 µM with Jurkat cells (setting [3]); 4.1 µM in the assay on Jurkat cells (setting [4]); 14.2 µM in the assay on EL4 cells (setting [5]); 38.2 µM in the assay with EL4 cells (setting [6]).
